Experimental data from US20200270309A1, “MALEIMIDE GROUP-MODIFIED ANGIOGENESIS INHIBITOR HM-1 AND USE THEREOF” (NANJING ANJI BIOLOGICAL TECHNOLOGY CO., LTD, priority 2017, published 2020).
Where two headings read alike, the source gives them in different places. Values belong to the compound of their own block, whether it stands above or below them. Peptide text beside a SMILES is read from it. * marks the point of attachment. Hexanoyl(6-maleimido) = O=C1C=CC(=O)N1CCCCCC(=O)*; Propanoyl(3-maleimido) = O=C1C=CC(=O)N1CCC(=O)*

Assay: Half-lives and pharmacokinetic parameters of polypeptides vs HM-1
Design: AUC0-∞: concentration or dose not given beside the values
Conditions: in vivo
[1] = read-out: T1/2β (half-life) (converted)

Structure (SMILES): CSCC[C@H](NC(=O)[C@H](Cc1c[nH]cn1)NC(=O)[C@H](CCC(N)=O)NC(=O)[C@H](CCCNC(=N)N)NC(=O)CCN1C(=O)C=CC1=O)C(=O)N[C@@H](Cc1ccccc1)C(=O)N[C@@H](CO)C(=O)N[C@@H](Cc1c[nH]c2ccccc12)C(=O)N[C@H](C(=O)N[C@@H](CC(C)C)C(=O)N[C@@H](C)C(=O)N[C@@H](CCCNC(=N)N)C(=O)N[C@@H](CC(N)=O)C(=O)N[C@@H](CC(=O)O)C(=O)N[C@@H](CCC(N)=O)C(=O)N[C@@H](CCC(=O)O)C(=O)N[C@@H](CCC(=O)O)C(=O)N[C@@H](CCCNC(=N)N)C(=O)NCC(=O)N[C@@H](CC(=O)O)C(=O)O)C(C)C [P1] ({Propanoyl(3-maleimido)}-RQHMFSWVLARNDQEERGD-OH; C-terminus assumed)
AUC0-∞: 0.0336 ± 0.0083 mg/L/h | half-life [1]: 36.96 ± 0.25 h

Structure (SMILES): CSCC[C@H](NC(=O)[C@H](Cc1c[nH]cn1)NC(=O)[C@H](CCC(N)=O)NC(=O)[C@H](CCCNC(=N)N)NC(=O)CCCCCN1C(=O)C=CC1=O)C(=O)N[C@@H](Cc1ccccc1)C(=O)N[C@@H](CO)C(=O)N[C@@H](Cc1c[nH]c2ccccc12)C(=O)N[C@H](C(=O)N[C@@H](CC(C)C)C(=O)N[C@@H](C)C(=O)N[C@@H](CCCNC(=N)N)C(=O)N[C@@H](CC(N)=O)C(=O)N[C@@H](CC(=O)O)C(=O)N[C@@H](CCC(N)=O)C(=O)N[C@@H](CCC(=O)O)C(=O)N[C@@H](CCC(=O)O)C(=O)N[C@@H](CCCNC(=N)N)C(=O)NCC(=O)N[C@@H](CC(=O)O)C(=O)O)C(C)C [P2] ({Hexanoyl(6-maleimido)}-RQHMFSWVLARNDQEERGD-OH; C-terminus assumed)
AUC0-∞: 0.0350 ± 0.0076 mg/L/h | half-life [1]: 35.48 ± 0.3 h

Structure (SMILES): CC[C@H](C)[C@H](NC(=O)[C@H](Cc1c[nH]cn1)NC(=O)[C@H](CCC(N)=O)NC(=O)[C@H](CCCNC(=N)N)NC(=O)CCCCCN1C(=O)C=CC1=O)C(=O)N[C@@H](Cc1ccccc1)C(=O)N1CCC[C@H]1C(=O)N[C@@H](CO)C(=O)N[C@H](C(=O)N[C@@H](Cc1c[nH]c2ccccc12)C(=O)N[C@@H](Cc1ccccc1)C(=O)N[C@@H](Cc1c[nH]c2ccccc12)C(=O)N[C@@H](Cc1ccc(O)cc1)C(=O)N[C@@H](Cc1ccc(O)cc1)C(=O)N1CCC[C@H]1C(=O)N[C@@H](CC(=O)O)C(=O)N[C@@H](CCCNC(=N)N)C(=O)N[C@@H](CC(C)C)C(=O)N[C@@H](CCCCN)C(=O)N[C@@H](CCSC)C(=O)N[C@@H](CCCNC(=N)N)C(=O)N[C@@H](CCC(=O)O)C(=O)N[C@@H](CC(=O)O)C(=O)O)[C@@H](C)O [P4] ({Hexanoyl(6-maleimido)}-RQHIFPSTWFWYYPDRLKMRED-OH; C-terminus assumed)
AUC0-∞: 0.0391 ± 0.0066 mg/L/h | half-life [1]: 31.72 ± 0.26 h

Structure (SMILES): C[C@H](NC(=O)[C@H](CCCNC(=N)N)NC(=O)[C@H](CC(=O)O)NC(=O)[C@H](CCC(=O)O)NC(=O)CNC(=O)[C@H](CCCNC(=N)N)NC(=O)CCN1C(=O)C=CC1=O)C(=O)NCC(=O)NCC(=O)NCC(=O)NCC(=O)N[C@@H](CCCNC(=N)N)C(=O)NCC(=O)N[C@@H](CC(=O)O)C(=O)O [P5] ({Propanoyl(3-maleimido)}-RGEDRAGGGGRGD-OH; C-terminus assumed)
AUC(0-inf): 29200 ± 7880 ng·h/mL | MRT inf: 52.4 ± 12.2 h | clearance: 0.57 mL/min/kg | half-life: 36.28 ± 0.25 h

Structure (SMILES): C[C@H](NC(=O)[C@H](CCCNC(=N)N)NC(=O)[C@H](CC(=O)O)NC(=O)[C@H](CCC(=O)O)NC(=O)CNC(=O)[C@H](CCCNC(=N)N)NC(=O)CCCCCN1C(=O)C=CC1=O)C(=O)NCC(=O)NCC(=O)NCC(=O)NCC(=O)N[C@@H](CCCNC(=N)N)C(=O)NCC(=O)N[C@@H](CC(=O)O)C(=O)O [P6] ({Hexanoyl(6-maleimido)}-RGEDRAGGGGRGD-OH; C-terminus assumed)
AUC(0-inf): 27700 ± 7130 ng·h/mL | MRT inf: 49.6 ± 9.97 h | clearance: 0.602 mL/min/kg | half-life: 34.36 ± 0.25 h

Structure (SMILES): C[C@H](NC(=O)[C@H](CCCNC(=N)N)NC(=O)[C@H](CC(=O)O)NC(=O)CNC(=O)[C@H](CCCNC(=N)N)NC(=O)CCN1C(=O)C=CC1=O)C(=O)NCC(=O)NCC(=O)NCC(=O)NCC(=O)N[C@@H](CCCNC(=N)N)C(=O)NCC(=O)N[C@@H](CC(=O)O)C(=O)O [P7] ({Propanoyl(3-maleimido)}-RGDRAGGGGRGD-OH; C-terminus assumed)
AUC(0-inf) (read-out: AUC0-∞): 32000 ± 7820 ng·h/mL | clearance (read-out: CL (converted)): 0.522 mL/min/kg | MRT inf (read-out: MRT0-∞): 57.2 ± 13.9 h | half-life [1]: 39.63 ± 0.28 h

Structure (SMILES): C[C@H](NC(=O)[C@H](CCCNC(=N)N)NC(=O)[C@H](CC(=O)O)NC(=O)CNC(=O)[C@H](CCCNC(=N)N)NC(=O)CCCCCN1C(=O)C=CC1=O)C(=O)NCC(=O)NCC(=O)NCC(=O)NCC(=O)N[C@@H](CCCNC(=N)N)C(=O)NCC(=O)N[C@@H](CC(=O)O)C(=O)O [P8] ({Hexanoyl(6-maleimido)}-RGDRAGGGGRGD-OH; C-terminus assumed)
AUC(0-inf) (read-out: AUC0-∞): 31200 ± 8090 ng·h/mL | clearance (read-out: CL (converted)): 0.535 mL/min/kg | MRT inf (read-out: MRT0-∞): 55.8 ± 13.4 h | half-life [1]: 38.67 ± 0.27 h

Structure (SMILES): C[C@H](NC(=O)CNC(=O)[C@H](CCCNC(=N)N)NC(=O)CCN1C(=O)C=CC1=O)C(=O)N[C@@H](CC(=O)O)C(=O)N[C@@H](CCCNC(=N)N)C(=O)N[C@@H](C)C(=O)N[C@@H](CCC(=O)O)C(=O)N[C@@H](C)C(=O)N[C@@H](C)C(=O)N[C@@H](C)C(=O)N[C@@H](CCCCN)C(=O)N[C@@H](CCCNC(=N)N)C(=O)NCC(=O)N[C@@H](CC(=O)O)C(=O)O [P11] ({Propanoyl(3-maleimido)}-RGADRAEAAAKRGD-OH)
AUC(0-inf) (read-out: AUC0-∞): 31600 ± 8230 ng·h/mL | clearance (read-out: CL (converted)): 0.528 mL/min/kg | MRT inf (read-out: MRT0-∞): 56.5 ± 11.6 h | half-life [1]: 39.16 ± 0.31 h

The remaining lines, values ahead:

AUC0-∞: 0.0319 ± 0.0076 mg/L/h | half-life [1]: 38.89 ± 0.3 h
Structure (SMILES): CC[C@H](C)[C@H](NC(=O)[C@H](Cc1c[nH]cn1)NC(=O)[C@H](CCC(N)=O)NC(=O)[C@H](CCCNC(=N)N)NC(=O)CCN1C(=O)C=CC1=O)C(=O)N[C@@H](Cc1ccccc1)C(=O)N1CCC[C@H]1C(=O)N[C@@H](CO)C(=O)N[C@@H](Cc1c[nH]c2ccccc12)C(=O)N[C@@H](Cc1c[nH]c2ccccc12)C(=O)N[C@@H](Cc1ccccc1)C(=O)N[C@@H](Cc1c[nH]c2ccccc12)C(=O)N[C@@H](Cc1ccc(O)cc1)C(=O)N[C@@H](Cc1ccc(O)cc1)C(=O)N1CCC[C@H]1C(=O)N[C@@H](CC(=O)O)C(=O)N[C@@H](CCCNC(=N)N)C(=O)N[C@@H](CC(C)C)C(=O)N[C@@H](CCCCN)C(=O)N[C@@H](CCSC)C(=O)N[C@@H](CCCNC(=N)N)C(=O)NCC(=O)N[C@@H](CC(=O)O)C(=O)O [P3] ({Propanoyl(3-maleimido)}-RQHIFPSWWFWYYPDRLKMRGD-OH; C-terminus assumed)

AUC(0-inf) (read-out: AUC0-∞): 27900 ± 6880 ng·h/mL | clearance (read-out: CL (converted)): 0.597 mL/min/kg | MRT inf (read-out: MRT0-∞): 50 ± 10.7 h | half-life [1]: 34.64 ± 0.3 h
Structure (SMILES): CC(C)[C@H](NC(=O)[C@H](C)NC(=O)CNC(=O)[C@H](CCCNC(=N)N)NC(=O)CCN1C(=O)C=CC1=O)C(=O)N[C@@H](CC(=O)O)C(=O)N[C@@H](CCCNC(=N)N)C(=O)N[C@@H](C)C(=O)NCC(=O)NCC(=O)NCC(=O)NCC(=O)N[C@@H](CCCNC(=N)N)C(=O)NCC(=O)N[C@@H](CC(=O)O)C(=O)O [P9] ({Propanoyl(3-maleimido)}-RGAVDRAGGGGRGD-OH; C-terminus assumed)

AUC(0-inf) (read-out: AUC0-∞): 24600 ± 7030 ng·h/mL | clearance (read-out: CL (converted)): 0.677 mL/min/kg | MRT inf (read-out: MRT0-∞): 44.1 ± 11 h | half-life [1]: 30.6 ± 0.31 h
Structure (SMILES): CC(C)[C@H](NC(=O)[C@H](C)NC(=O)CNC(=O)[C@H](CCCNC(=N)N)NC(=O)CCCCCN1C(=O)C=CC1=O)C(=O)N[C@@H](CC(=O)O)C(=O)N[C@@H](CCCNC(=N)N)C(=O)N[C@@H](C)C(=O)NCC(=O)NCC(=O)NCC(=O)NCC(=O)N[C@@H](CCCNC(=N)N)C(=O)NCC(=O)N[C@@H](CC(=O)O)C(=O)O [P10] ({Hexanoyl(6-maleimido)}-RGAVDRAGGGGRGD-OH; C-terminus assumed)
